Reference: ChEMBL document CHEMBL3407464, “Novel 5-HT6 receptor antagonists/D2 receptor partial agonists targeting behavioral and psychological symptoms of dementia” (Eur J Med Chem, 2015)

Experiments:
[1] = target: T1, 5-hydroxytryptamine receptor 6 (Homo sapiens, UniProt P50406); assay: Agonist activity at human 5-HT6 receptor expressed in CHOK1 cells assessed as calcium mobilization at 1 uM by radiometric and luminescence plate counting method; format: functional, cell-based; details: CHO-K1
[2] = target: T1, 5-hydroxytryptamine receptor 6; assay: biochemical
hERG (KCNH2) = hERG (KCNH2) (Homo sapiens, UniProt Q12809); assay: Inhibition of human ERG expressed in CHO cells assessed as reduction in channel current at holding potential of 0 mV at 1 uM by electrophysiological method; format: cell-based; details: CHO cells expressing human ERG
[3] = target: T2, Muscarinic acetylcholine receptor M1 (Homo sapiens) (UniProt P11229); assay: Inhibition of muscarinic M1 receptor (unknown origin) assessed as reduction in control ligand binding at 1 uM
T2 sequence (whole entry): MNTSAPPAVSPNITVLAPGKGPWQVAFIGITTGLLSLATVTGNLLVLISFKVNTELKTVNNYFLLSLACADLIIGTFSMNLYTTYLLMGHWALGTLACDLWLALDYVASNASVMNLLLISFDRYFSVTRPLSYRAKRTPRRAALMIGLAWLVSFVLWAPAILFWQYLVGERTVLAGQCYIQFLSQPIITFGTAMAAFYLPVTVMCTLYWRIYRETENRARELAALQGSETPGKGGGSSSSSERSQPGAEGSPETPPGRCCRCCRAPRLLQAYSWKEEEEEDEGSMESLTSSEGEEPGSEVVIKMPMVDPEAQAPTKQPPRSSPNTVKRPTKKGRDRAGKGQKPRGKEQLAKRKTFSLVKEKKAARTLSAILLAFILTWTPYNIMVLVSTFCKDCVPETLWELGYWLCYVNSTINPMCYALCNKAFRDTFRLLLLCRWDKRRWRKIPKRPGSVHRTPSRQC

D(2) dopamine receptor [4] = target: T3, D(2) dopamine receptor (Homo sapiens, UniProt P14416); assay: Agonist activity at human dopamine D2 receptor expressed in CHOK1 cells assessed as calcium mobilization at 1 uM by radiometric and luminescence plate counting method; format: functional, cell-based; details: CHO-K1
D(2) dopamine receptor [5] = target: T3, D(2) dopamine receptor; assay: Antagonist activity at human dopamine D2 receptor expressed in CHOK1 cells assessed as inhibition of apomorphine-induced calcium mobilization at 1 uM by radiometric and luminescence plate counting method; format: functional, cell-based; details: CHO-K1
D(2) dopamine receptor [6] = target: T3, D(2) dopamine receptor; assay: biochemical

T1 sequence (P50406 whole entry): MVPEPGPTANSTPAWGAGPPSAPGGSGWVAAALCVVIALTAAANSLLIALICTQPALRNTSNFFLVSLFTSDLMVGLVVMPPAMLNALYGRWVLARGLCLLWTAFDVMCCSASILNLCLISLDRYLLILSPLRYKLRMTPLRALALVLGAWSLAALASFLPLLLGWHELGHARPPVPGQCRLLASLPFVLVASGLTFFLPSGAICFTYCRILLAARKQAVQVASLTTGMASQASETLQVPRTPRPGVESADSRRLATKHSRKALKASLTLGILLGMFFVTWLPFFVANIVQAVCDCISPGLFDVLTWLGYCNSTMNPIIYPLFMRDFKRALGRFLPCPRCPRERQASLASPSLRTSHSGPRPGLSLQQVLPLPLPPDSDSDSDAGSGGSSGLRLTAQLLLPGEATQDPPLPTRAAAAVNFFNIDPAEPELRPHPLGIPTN
Chain of hERG (KCNH2) (Q12809 whole entry): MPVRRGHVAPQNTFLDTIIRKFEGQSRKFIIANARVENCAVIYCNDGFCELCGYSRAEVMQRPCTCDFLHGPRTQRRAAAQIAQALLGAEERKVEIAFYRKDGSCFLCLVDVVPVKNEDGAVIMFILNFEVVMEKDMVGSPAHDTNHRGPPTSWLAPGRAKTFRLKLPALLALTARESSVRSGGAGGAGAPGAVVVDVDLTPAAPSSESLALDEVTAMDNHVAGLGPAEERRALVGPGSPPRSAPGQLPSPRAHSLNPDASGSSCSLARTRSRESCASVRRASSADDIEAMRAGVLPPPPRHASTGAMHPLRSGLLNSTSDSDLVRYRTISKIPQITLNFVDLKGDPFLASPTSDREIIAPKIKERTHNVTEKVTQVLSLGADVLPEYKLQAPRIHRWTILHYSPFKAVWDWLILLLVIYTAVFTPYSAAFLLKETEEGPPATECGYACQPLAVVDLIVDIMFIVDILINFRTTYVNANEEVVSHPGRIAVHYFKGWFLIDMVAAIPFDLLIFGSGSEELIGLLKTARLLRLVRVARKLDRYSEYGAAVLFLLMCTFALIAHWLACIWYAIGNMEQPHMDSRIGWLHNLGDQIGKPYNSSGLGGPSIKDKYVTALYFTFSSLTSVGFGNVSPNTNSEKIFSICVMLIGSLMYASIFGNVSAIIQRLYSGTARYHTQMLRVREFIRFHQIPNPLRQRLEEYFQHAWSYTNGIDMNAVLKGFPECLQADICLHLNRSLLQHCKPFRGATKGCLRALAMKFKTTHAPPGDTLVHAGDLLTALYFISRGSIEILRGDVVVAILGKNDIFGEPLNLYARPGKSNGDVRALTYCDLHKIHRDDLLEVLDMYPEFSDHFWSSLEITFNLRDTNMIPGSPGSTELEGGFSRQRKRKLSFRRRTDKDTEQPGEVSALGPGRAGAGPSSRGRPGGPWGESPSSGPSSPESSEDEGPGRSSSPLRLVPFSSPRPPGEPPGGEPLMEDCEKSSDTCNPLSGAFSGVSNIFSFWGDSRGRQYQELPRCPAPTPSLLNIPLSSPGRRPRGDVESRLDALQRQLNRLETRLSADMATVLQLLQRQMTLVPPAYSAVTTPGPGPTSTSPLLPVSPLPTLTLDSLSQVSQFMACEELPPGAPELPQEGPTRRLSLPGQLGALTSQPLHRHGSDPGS
T3 sequence (P14416 whole entry): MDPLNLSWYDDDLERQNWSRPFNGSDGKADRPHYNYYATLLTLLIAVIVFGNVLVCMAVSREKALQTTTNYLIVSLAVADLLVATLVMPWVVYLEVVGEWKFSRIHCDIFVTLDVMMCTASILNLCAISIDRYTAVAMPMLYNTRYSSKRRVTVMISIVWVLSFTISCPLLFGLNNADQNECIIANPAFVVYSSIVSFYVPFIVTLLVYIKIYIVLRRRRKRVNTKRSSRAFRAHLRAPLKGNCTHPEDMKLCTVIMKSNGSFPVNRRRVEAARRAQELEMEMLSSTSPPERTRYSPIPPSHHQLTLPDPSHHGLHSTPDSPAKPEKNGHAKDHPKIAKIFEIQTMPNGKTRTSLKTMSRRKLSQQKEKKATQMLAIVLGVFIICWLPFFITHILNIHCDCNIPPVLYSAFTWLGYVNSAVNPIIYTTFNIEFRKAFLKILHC

Row | SMILES | inhibition [1] [%] | Ki [2] [nM] | inhibition at 1 µM (hERG (KCNH2)) [%] | inhibition [3] [%] | inhibition (D(2) dopamine receptor [4]) [%] | inhibition (D(2) dopamine receptor [5]) [%] | Ki (D(2) dopamine receptor [6]) [nM]
1 | O=C1CCc2ccc(OCCCCN3CCN(c4cccc5c4ccn5S(=O)(=O)c4ccccc4)CC3)cc2N1 | 0 | 0.4 | 13 | 37 | 48 | 100 | –
2 | O=C1CCc2ccc(OCCCCN3CCN(c4cccc5c4ccn5Cc4ccccc4)CC3)cc2N1 | 0 | 13 | 14 | 99 | 42 | 97 | 20
3 | O=C1CCc2ccc(OCCCCN3CCN(c4cccc5c4ccn5Cc4cccc(F)c4)CC3)cc2N1 | 0 | 20 | 18 | 94 | 39 | 99 | 6.1
